Experimental data: ChEMBL document CHEMBL3875186, “Design, synthesis, and characterization of rhein analogs as novel inhibitors of scavenger receptor A” (Bioorg Med Chem Lett, 2017)
Activity calls are given as the source filed them. The rule behind the calls is not given here.

Columns and labels:
[1] = biological target: T1, Macrophage scavenger receptor types I and II (Mus musculus) (UniProt P30204); experiment: (§1) Antagonist activity at SRA in RM1-OVA tumor bearing wild type C57BL/6 mouse derived CD11bpositiveLy6ChighLy6Gnegative myeloid-derived suppressive cells co-cultured with splenocytes assessed as reduction in protein-mediated inhibition of anti CD3/CD28 antibody-induced T-cell activation by measuring IL-2 secretion at 10 to 20 uM pretreated for 2 hrs followed by splenocytes addition measured after 56 hrs by ELISA
T1 sequence (whole entry): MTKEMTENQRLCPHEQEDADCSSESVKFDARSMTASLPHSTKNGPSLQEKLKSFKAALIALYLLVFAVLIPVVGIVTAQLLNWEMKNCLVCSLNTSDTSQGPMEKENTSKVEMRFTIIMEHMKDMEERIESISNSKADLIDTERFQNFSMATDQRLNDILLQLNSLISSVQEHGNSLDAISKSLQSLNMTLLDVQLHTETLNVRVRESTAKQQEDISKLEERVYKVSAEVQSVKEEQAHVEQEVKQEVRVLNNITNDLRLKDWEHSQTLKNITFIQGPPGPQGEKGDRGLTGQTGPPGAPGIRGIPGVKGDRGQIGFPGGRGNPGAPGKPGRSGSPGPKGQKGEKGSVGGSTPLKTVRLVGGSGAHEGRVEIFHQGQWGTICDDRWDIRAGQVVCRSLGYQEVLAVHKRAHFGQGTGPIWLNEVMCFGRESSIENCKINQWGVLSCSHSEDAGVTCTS

[2] = biological target: T1, Macrophage scavenger receptor types I and II (Mus musculus); experiment: Antagonist activity at mouse recombinant SRA extracellular domain expressed in baculovirus infected Sf21 insect cells assessed as inhibition of protein-induced reduction of IL2 gene promoter activation in anti CD3/CD28 antibody activated wild type C57BL/6 mouse B3Z T-cells at 50 uM after 5 hrs by beta-galactosidase reporter gene assay
[3] = biological target: T1, Macrophage scavenger receptor types I and II (Mus musculus); experiment: as §1, with “proliferation” for “activation by measuring IL-2 secretion”, “preincubated” for “pretreated”, “72” for “56”, “[3H]-thymidine incorporation assay” for “ELISA”
[4] = biological target: T1, Macrophage scavenger receptor types I and II (Mus musculus); experiment: as §1, with “secretion” for “secretion at 10 to 20 uM”

Structure (SMILES) | inhibition [1] | inhibition [2] | inhibition [3] | inhibition [4]
O=C(O)c1ccc2c(c1)C(=O)c1cccc(O)c1C2=O | Active | Active | Active | 
O=C1c2cccc(O)c2C(=O)c2c(O)cccc21 |  | Active | Active | Dose-dependent effect
O=C(O)c1cc(O)c2c(c1)C(=O)c1cccc(O)c1C2=O |  |  | Active | 
